Laboratory results published in the supplement of paper PMC8671470.

Columns and labels:
Details in all cases: 72 h
HL-60 [1] = assay: cell viability (% survival relative to DMSO control); higher = less cytotoxic
Procedure, shortened: (§1)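 Area under the curve, where listed, was derived from four-parameter log-logistic fits with drc and PharmacoGx. These fits used CellTiter-Glo viability from HL-60 cells in RPMI 1640 with 10% FBS, normalised to DMSO wells and wells holding 10 μM proteasome inhibitor. The full library was rescreened on 384-well plates in duplicate at five tenfold concentrations, 1–10,000 nM, with DMSO or 100 nM of one of three metabolic inhibitors, for 72 h at 37 °C, 5% CO2.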

[2] = system: myeloid leukemia patient primary cells Pat.10; assay: cell viability (% survival relative to DMSO control); higher = less cytotoxic
Procedure, shortened: (§2)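 Thawed, Ficoll-purified mononuclear cells from AML or CML patients in RPMI 1640 with 10% FBS were seeded at 10,000 cells/well on 384-well plates pre-printed with 70 compounds at five tenfold concentrations, 1–10,000 nM, in duplicate, for 72 h. Viability was read by CellTiter-Glo and normalised to DMSO and 10 μM proteasome-inhibitor wells. Where given, area under the curve came from four-parameter log-logistic fits (drc, PharmacoGx R packages).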

[3] = system: myeloid leukemia patient primary cells Pat.11; assay: as above
Procedure, shortened: as §2

[4] = system: myeloid leukemia patient primary cells Pat.12; assay: as above
Procedure, shortened: as §2

[5] = system: myeloid leukemia patient primary cells Pat.13; assay: as above
Procedure, shortened: as §2

[6] = system: myeloid leukemia patient primary cells Pat.14; assay: as above
Procedure, shortened: as §2

[7] = system: myeloid leukemia patient primary cells Pat.15; assay: as above
Procedure, shortened: as §2

[8] = system: myeloid leukemia patient primary cells Pat.1; assay: as above
Procedure, shortened: as §2

[9] = system: myeloid leukemia patient primary cells Pat.2; assay: as above
Procedure, shortened: as §2

[10] = system: myeloid leukemia patient primary cells Pat.3; assay: as above
Procedure, shortened: as §2

[11] = system: myeloid leukemia patient primary cells Pat.4; assay: as above
Procedure, shortened: as §2

[12] = system: myeloid leukemia patient primary cells Pat.5; assay: as above
Procedure, shortened: as §2

[13] = system: myeloid leukemia patient primary cells Pat.6; assay: as above
Procedure, shortened: as §2

[14] = system: myeloid leukemia patient primary cells Pat.7; assay: as above
Procedure, shortened: as §2

[15] = system: myeloid leukemia patient primary cells Pat.8; assay: as above
Procedure, shortened: as §2

[16] = system: myeloid leukemia patient primary cells Pat.9; assay: as above
Procedure, shortened: as §2

HL-60 [17] = assay: area under dose-response curve (viability, 1 nM-10 uM) (fraction (0-1)); higher = more sensitive
Procedure, shortened: as §1

C=CCN(C)CCCCCCOc1ccc(C(=O)c2ccc(Br)cc2)c(F)c1.O=C(O)/C=C/C(=O)O [Ro 48-8071 fumarate]
cell viability [%], HL-60 [1]
Details | 0.001 µM | 0.01 µM | 0.1 µM | 1 µM | 10 µM
co-treatment: AZD3965 100 nM | 99.39 | 92.3 | 103 | 94.9 | 44.1
co-treatment: DMSO vehicle | 99.1 | 86.3 | 107 | 102 | 75.5
co-treatment: GSK2194069 100 nM | 103 | 68.3 | 101 | 104 | 53
co-treatment: pictilisib 100 nM | 113 | 93.6 | 99.37 | 84.2 | 38.3

Details | area under dose-response curve, co-treatment: AZD3965 100 nM | area under dose-response curve, co-treatment: DMSO vehicle | area under dose-response curve, co-treatment: GSK2194069 100 nM | area under dose-response curve, co-treatment: pictilisib 100 nM | cell viability, 1 nM [%] | cell viability, 10 nM [%] | cell viability, 100 nM [%] | cell viability, 1000 nM [%] | cell viability, 10000 nM [%]
HL-60 [17] | 0.0549 | < 0.0301 | 0.0331 | 0.112 | – | – | – | – | –
[2] | – | – | – | – | 80.8 | 61.7 | 63.7 | 73.8 | < 0
[3] | – | – | – | – | 98.4 | 100 | 97.9 | 96.5 | 72.2
[4] | – | – | – | – | 96.5 | 91.5 | 93.7 | 82.9 | 77.6
[5] | – | – | – | – | 92.9 | 98.7 | 82.6 | 85.6 | 51.7
[6] | – | – | – | – | 93.2 | 99.3 | 91.9 | 99.6 | 21
[7] | – | – | – | – | 84 | 94.1 | 99.4 | 94.3 | 56.6
[8] | – | – | – | – | 97.8 | 94.5 | 97.4 | 82.7 | 37.2
[9] | – | – | – | – | 98.4 | 99.7 | 97.6 | 97.1 | 71.1
[10] | – | – | – | – | 55 | 59.7 | 28.2 | 21.8 | 6.91
[11] | – | – | – | – | 86.4 | 92 | 88.3 | 88.5 | 56.3
[12] | – | – | – | – | > 100 | 61.6 | 73.3 | 73.5 | 0.265
[13] | – | – | – | – | 99.9 | > 100 | 87.1 | 92.9 | 37.7
[14] | – | – | – | – | > 100 | > 100 | 85.7 | 61.7 | < 0
[15] | – | – | – | – | 78.8 | 96.9 | 94.9 | 92.1 | 75.8
[16] | – | – | – | – | 90.4 | 69.8 | 87.2 | 84.8 | < 0

CN(CCOc1ccc(Cc2sc(O)nc2O)cc1)c1ccccn1 [Rosiglitazone]
cell viability [%], HL-60 [1]
Details | 0.001 µM | 0.01 µM | 0.1 µM | 1 µM | 10 µM
co-treatment: AZD3965 100 nM | 104.4 | 105 | 100 | 105 | 102
co-treatment: DMSO vehicle | 102.4 | 102 | 102 | 102.5 | 99.9
co-treatment: GSK2194069 100 nM | 97.7 | 105 | 98.5 | 105 | 92.5
co-treatment: pictilisib 100 nM | 98.9 | 102 | 96.3 | 98.3 | 89.5

Details | area under dose-response curve, co-treatment: AZD3965 100 nM | area under dose-response curve, co-treatment: DMSO vehicle | area under dose-response curve, co-treatment: GSK2194069 100 nM | area under dose-response curve, co-treatment: pictilisib 100 nM | cell viability, 1 nM [%] | cell viability, 10 nM [%] | cell viability, 100 nM [%] | cell viability, 1000 nM [%] | cell viability, 10000 nM [%]
HL-60 [17] | < 0.0301 | < 0.0301 | < 0.0301 | < 0.0301 | – | – | – | – | –
[2] | – | – | – | – | 73.8 | 40 | 87.7 | 67.1 | 49.2
[3] | – | – | – | – | 98.6 | 92.1 | 95.7 | 97.2 | 88.1
[4] | – | – | – | – | > 100 | 97.4 | 95.7 | 96.5 | 88.9
[5] | – | – | – | – | 80.8 | 69.2 | 99.9 | 91.9 | 78.3
[6] | – | – | – | – | 53.7 | 59.7 | > 100 | 91.1 | 50
[7] | – | – | – | – | 93.1 | 95 | 91.5 | 77.7 | 70
[8] | – | – | – | – | 80.1 | 72.6 | 92.5 | 95.9 | 84.4
[9] | – | – | – | – | 87.1 | 78.9 | 97.8 | 98.3 | 83.4
[10] | – | – | – | – | 91.7 | 63.6 | 99.4 | 79.2 | 36
[11] | – | – | – | – | 83.3 | 93 | 99.6 | 94.1 | 95.3
[12] | – | – | – | – | 9.01 | 3.3 | 91.7 | 92.8 | 6.86
[13] | – | – | – | – | 89.5 | 85.4 | 96.7 | 99 | 77.9
[14] | – | – | – | – | 62.7 | 60 | > 100 | 88.5 | 66
[15] | – | – | – | – | 92.6 | 87 | 80.3 | 91.8 | 69.7
[16] | – | – | – | – | 55 | 24.9 | 94.9 | 61.9 | 29.7
